Laboratory results: patent US10973831B2, “Fluoropiperidine compounds as pure 5-HT 6 receptor antagonists” (SUVEN LIFE SCIENCES LIMITED, priority 2017, dated 2021)
Counter-ions that a name gives are not always drawn.

How the values were obtained:
[1] = target: T1, recombinant human 5-HT6 receptor (Homo sapiens, UniProt P50406); experiment: Determination of Kb for 5-HT6 receptor (CHO cells, pCRE-Luc reporter, cAMP); assay type: cell-based; conditions: 10 μM serotonin, luciferase reporter
T1 construct: expressed in transfected cells
T1 sequence (P50406 whole entry): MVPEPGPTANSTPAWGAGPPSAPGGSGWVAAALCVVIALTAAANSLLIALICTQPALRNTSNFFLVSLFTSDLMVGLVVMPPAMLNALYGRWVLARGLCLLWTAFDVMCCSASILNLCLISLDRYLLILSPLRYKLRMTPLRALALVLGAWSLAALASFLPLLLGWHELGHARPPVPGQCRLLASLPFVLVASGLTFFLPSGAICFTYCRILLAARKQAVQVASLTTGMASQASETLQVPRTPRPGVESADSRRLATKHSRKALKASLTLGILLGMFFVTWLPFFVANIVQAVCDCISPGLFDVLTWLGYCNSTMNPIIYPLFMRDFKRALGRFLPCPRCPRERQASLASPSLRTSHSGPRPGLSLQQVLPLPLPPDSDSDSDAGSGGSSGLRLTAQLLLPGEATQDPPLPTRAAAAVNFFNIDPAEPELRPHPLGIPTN
Procedure: Determination of Kb for 5-HT6 Receptor: A stable CHO cell line expressing recombinant human 5-HT6 receptor and pCRE-Luc reporter system was used for cell based assay. The assay offers a non-radioactive based approach to determine binding of a compound to GPCRs. In this specific assay, the level of intracellular cyclic AMP which is modulated by activation or inhibition of the receptor is measured. The recombinant cells harbor luciferase reporter gene under the control of cAMP response element. The above cells were plated in 96 well clear bottom white plates at a density of 5×10^4 cells/well using Hams F12 medium containing 10% fetal bovine serum (FBS) and incubated overnight at 37° C. and 5% CO2 followed by serum starvation for 18-20 hrs. Increasing concentrations of test compounds were added along with 10 μM serotonin in Opti-MEM to the cells. The incubation was continued at 37° C. in CO2 incubator for 4 hours. After 4 hours cells were lysed using lysis buffer and luciferase assay buffer was added to each well and counts per second were recorded using luminescence counter. From counts per second (CPS) obtained, percent binding was calculated for each well by taking 10 μM 5-HT as 100% bound and vehicle as 0% bound. The percent bound values were plotted against compound concentrations and data were analyzed using a nonlinear, iterative curve-fitting computer program of Graph pad Prism 4 software. The Kb values were calculated using concentration of the agonist used in the assay.

[2] = target: T2, recombinant human 5-HT2A (Homo sapiens, UniProt P28223); experiment: Determination of 5-HT2A binding ([3H]-Ketanserin radioligand, membranes); conditions: human 5-HT2A membranes, [3H]-Ketanserin 1.75 nM
T2 construct: purchased Perkin Elmer ES-313-M400UA
T2 sequence (P28223 whole entry): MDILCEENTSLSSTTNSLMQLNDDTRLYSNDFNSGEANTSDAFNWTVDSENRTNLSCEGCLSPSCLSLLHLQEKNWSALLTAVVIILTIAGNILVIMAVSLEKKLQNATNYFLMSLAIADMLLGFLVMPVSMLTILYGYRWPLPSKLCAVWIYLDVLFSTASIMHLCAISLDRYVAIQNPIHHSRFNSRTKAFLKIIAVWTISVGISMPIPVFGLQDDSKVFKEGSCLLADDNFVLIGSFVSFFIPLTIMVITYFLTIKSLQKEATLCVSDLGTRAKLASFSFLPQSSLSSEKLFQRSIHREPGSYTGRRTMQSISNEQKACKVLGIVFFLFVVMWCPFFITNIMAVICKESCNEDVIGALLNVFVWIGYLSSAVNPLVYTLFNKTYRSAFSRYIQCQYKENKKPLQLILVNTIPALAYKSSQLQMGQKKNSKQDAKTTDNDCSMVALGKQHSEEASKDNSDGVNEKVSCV
Procedure: Membrane preparation from recombinant human 5-HT2A cell line (Cat no. ES-313-M400UA) and radio ligand Ketanserin Hydrochloride, [Ethylene-^3H]-(R-41468) (Cat no. NET791250UC) were purchased from Perkin Elmer. All other reagents used in buffer preparation were purchased from Sigma. The final ligand concentration was 1.75 nM; non-specific determinant was 1-NP [10 μM] and 5-HT2A membrane protein (5 μg/well). 1-NP was used as a positive control. Reactions were carried out in 67 mM Tris pH 7.6 containing 0.5 mM EDTA buffer for 60 minutes at 25° C. Reaction was stopped by rapid filtration followed by six washes of the binding mixture using 96 well harvest plate (Millipore Cat no. MSFBNXB50) pre coated with 0.33% polyethyleneimine. The plate was dried and the bound radioactivity collected on the filters was determined by scintillation counting using MicroBeta TriLux. Radio ligand binding in the presence of non-labeled compound was expressed as a percent of the total binding and plotted against the log concentration of the compound. Ki values were determined using a nonlinear, iterative curve-fitting computer program of Graph pad Prism 4 software.

[3] = Non-clinical toxicology, repeated dose toxicity study in rat; assay type: in vivo; conditions: rat, female rats
Procedure: (§1) The safety of the example 1 of instant invention and comparator example of U.S. Pat. No. 7,378,415 were evaluated in repeated dose toxicity study in rat.
(§2) Female rats were used as experimental animals for evaluating the toxicity profile of example 1 of instant invention and the comparator example of U.S. Pat. No. 7,378,415.
(§3) During the study, female rats were dosed at incremental doses for minimum of 4 days. Toxicity assessment was done on the mortality, clinical observation, change in the body weight, feed consumption, clinical and anatomical pathology. Systemic exposures were also estimated for both of the compounds. All quantitative variables are compared with control group using one-way ANOVA followed by Dunnet's post-hoc test on GraphPad Prism Software version 4, 2003.

[4] = system: Female rats; experiment: as above; assay type: in vivo; conditions: repeated dose toxicity
Procedure: as §1, §2, §3

`O=S(=O)(c1ccccc1)c1ccc2c(c1)OCCN2C1CCNCC1F` (single isomer, unassigned; peak i) [Example 2, 7-Phenylsulfonyl-4-(3-fluoropiperidin-4-yl)-3,4-dihydro-2H-benzo[1,4]oxazine hydrochloride (Peak I)] gave a Kb [1] of 0.4 nM and a Ki [2] of 262 nM.

`O=S(=O)(c1cccc(F)c1)c1ccc2c(c1)OCCN2C1CCNCC1F` (single isomer, unassigned; peak iii) [Example 7, 7-(3-Fluorophenylsulfonyl)-4-(3-fluoropiperidin-4-yl)-3,4-dihydro-2H-benzo[1,4]oxazine hydrochloride (Peak III)] gave a Kb [1] of less than 0.1 nM and a Ki [2] of 19.7 nM.

With `O=S(=O)(c1cccc(F)c1)c1ccc2c(c1)OCCN2C1CCNCC1F` (single isomer, unassigned; peak iv) [Example 8, 7-(3-Fluorophenylsulfonyl)-4-(3-fluoropiperidin-4-yl)-3,4-dihydro-2H-benzo[1,4]oxazine hydrochloride (Peak IV)] the Kb [1] was 19 nM and the Ki [2] was 804 nM.

Compound `O=S(=O)(c1ccccc1)c1ccc2c(c1)N(C1CCNCC1F)CCO2` (single isomer, unassigned; peak ii) [Example 15, 6-Phenylsulfonyl-4-(3-fluoropiperidin-4-yl)-3,4-dihydro-2H-benzo[1,41]oxazine (Peak II)] has a Kb [1] of 1.25 nM and a Ki [2] of 1660 nM.

Work on `O=S(=O)(c1ccccc1)c1ccc2c(c1)OCCN2C1CCNCC1F` (single isomer, unassigned; peak iv) [Example 4, 7-Phenylsulfonyl-4-(3-fluoropiperidin-4-yl)-3,4-dihydro-2H-benzo[1,4]oxazine hydrochloride (Peak IV)] yielded a Kb [1] of 0.4 nM and a Ki [2] of 3930 nM.

Work on `O=S(=O)(c1ccccc1)c1ccc2c(c1)OCCN2C1CCNCC1F` (single isomer, unassigned; peak ii) [Example 3, 7-Phenylsulfonyl-4-(3-fluoropiperidin-4-yl)-3,4-dihydro-2H-benzo[1,4]oxazine hydrochloride (Peak II)] yielded a Kb [1] of 0.09 nM and a Ki [2] of 113 nM.

Compound `O=S(=O)(c1ccccc1)c1ccc2c(c1)OCCN2C1CCNCC1` [Comparator Example, 7-Phenylsulfonyl-4-(piperidin-4-yl)-3,4-dihydro-2H-benzo[1,4]oxazine, reference compound] has a Kb [1] of 0.1 nM, a Ki [2] of 9.02 nM and an NOAEL at 7 days ([3]; in vivo, 7-Day repeat tox) of 30 mg/kg. For the same compound, the MTD ([3]; in vivo, repeated incremental doses, read-out: Maximum Tolerated Dose) was 30 mg/kg, the AUC ([3]; plasma, repeated dose toxicity study, read-out: AUC (systemic exposure in toxicity study)) was 4050 ng·h/mL and the Cmax ([3]; plasma, repeated dose toxicity study, read-out: Cmax (systemic exposure in toxicity study)) was 280 ng/mL. For the same compound, the “Findings (mortality)” value ([4]; listed as Comparator example of U.S. Pat. No. 7,378,415) was “Mortality at ≥” and the “Findings (mortality)” value ([4]; listed as comparator example of U.S. Pat. No. 7,378,415) was “deaths were observed at doses >100 mg/kg on second day of dosing”.

For `O=S(=O)(c1ccccc1)c1ccc2c(c1)N(C1CCNCC1F)CCO2` (single isomer, unassigned; peak iv) [Example 17, 6-Phenylsulfonyl-4-(3-fluoropiperidin-4-yl)-3,4-dihydro-2H-benzo[1,41]oxazine (Peak IV)], the Kb [1] was 1.79 nM and the Ki [2] was 907 nM.
